The values below are quoted from earlier work in patent publication US12343373B2, “Glycopeptide antibiotics liquid formulations and methods and uses thereof” (SOMERSET THERAPEUTICS, LLC, priority 2020, dated 2025).

Read-outs that look alike come from different tables or passages of the source.

For data set [1] the following is noted: oral dosing.

On to `CSCC[C@H](NC(C)=O)C(=O)O` [NALM, N-acetyl-L-methionine], for which the hydrolysis to methionine entry in data set [1] is “completely hydrolyzed to L-methionine and acetic acid”. As to “polyethylene glycol 400 [polyethylene glycol (PEG 400)]”, for the setting “in vivo”, the embryo-fetal toxicity result is recorded as “caused fetal malformations”. Turning to `CSCC[C@@H](NC(C)=O)C(=O)O` [NADM, N-acetyl-D-methionine], in data set [1], the hydrolysis to methionine entry is “only minimally hydrolyzed to D- and L-methionine”. `CC(=O)N[C@H](C)C(=O)O` [N-acetyl D-alanine (NADA), N-acetyl-D-alanine]: the embryo-fetal toxicity result (animal reproduction studies, product label black box warning) is “caused fetal malformations”.
